Patent US7906156B2, “CB2 receptors blocks accumulation of human hepatic myofibroblasts: a novel antifibrogenic pathway in the liver” (priority 2003, dated 2011)
Structures can show the parent of a compound that is named as a salt. Residues, ends and D or L forms follow the SMILES beside them. *: point of attachment. Cbz = O=C(OCc1ccccc1)*; CH2F = FC*

What was measured:
[1] = target: T1, CB1 receptors (Homo sapiens, UniProt P21554); assay type: cell-based
T1 construct: host or cells: CHO cells

[2] = tested on: human hepatic myofibroblasts; experiment: Cell viability (MTS assay) / cytotoxicity of serum-deprived hepatic myofibroblasts; assay type: cell-based; settings: for IC50: 16 hours, MTS assay, read-out: half maximal decrease in cell viability
Procedure: Cell viability. […] CellTiter 96 AQueous One Solution reagent was added to each well and absorbance was recorded at 490 nm.

[3] = tested on: human hepatic myofibroblasts; experiment: cells; assay type: cell-based; settings: for effect on DNA synthesis / growth / IC50 / maximal reduction of PDGF-BB-stimulated DNA synthesis: 20 ng/ml PDGF-BB; for effect on the antiproliferative effect of THC: pretreatment before THC + PDGF-BB; for IC50: 30 hrs, read-out: half maximal inhibition (IC50) of DNA synthesis; for maximal reduction of PDGF-BB-stimulated DNA synthesis: at 500 nM
[4] = target: T2, CB2 receptors (Homo sapiens, UniProt P34972); experiment: forskolin-stimulated cAMP levels in CHO overexpressing CB2 receptors; assay type: cell-based; design: host or cells: CHO cells; settings: CHO overexpressing CB2, 100 nM, 10 min
T2 sequence (P34972 whole entry): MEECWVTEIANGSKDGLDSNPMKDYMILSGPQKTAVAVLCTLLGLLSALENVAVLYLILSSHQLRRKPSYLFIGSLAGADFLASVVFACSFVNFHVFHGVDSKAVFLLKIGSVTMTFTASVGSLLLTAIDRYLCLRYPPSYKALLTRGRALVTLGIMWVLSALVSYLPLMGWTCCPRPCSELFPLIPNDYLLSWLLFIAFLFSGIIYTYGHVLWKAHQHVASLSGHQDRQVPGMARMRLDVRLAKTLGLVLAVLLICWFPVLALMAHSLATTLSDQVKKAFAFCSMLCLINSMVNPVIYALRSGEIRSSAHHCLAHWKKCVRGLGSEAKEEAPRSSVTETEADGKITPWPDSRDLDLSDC

[5] = tested on: caspase-3; experiment: Caspase-3-like activity on cell lysates; settings: for effect on caspase-3 activation elicited by THC: pretreatment before THC
[6] = tested on: human hepatic myofibroblasts; experiment: DNA laddering and DAPI nuclear morphology; assay type: cell-based
Procedure: (A) Phase-contrast analysis (Magnification ×100). […] (C) Caspase-3-like activity.
Apoptosis assays. […] Nuclear morphology was assayed using DAPI staining.

[7] = target: T2, CB2 receptors; experiment: [35S]GTPγS binding assay, membranes of human hepatic myofibroblasts
[8] = tested on: COX; experiment: COX activity (PGE2 released after arachidonic acid); settings: 1000 nM THC, 8 h
[9] = target: T2, CB2 receptors; experiment: [35S]GTPγS binding assay, membranes of CHO cells overexpressing CB2 receptors
[10] = tested on: COX-2; experiment: COX-2 protein induction (Western blot); settings: 8 h
[11] = tested on: cAMP; experiment: cAMP levels in human hepatic myofibroblasts; assay type: cell-based; settings: not shown
[12] = tested on: reactive oxygen species; experiment: Intracellular reactive oxygen species (DCFH-DA fluorescence); assay type: cell-based, human

T1 sequence (P21554 whole entry): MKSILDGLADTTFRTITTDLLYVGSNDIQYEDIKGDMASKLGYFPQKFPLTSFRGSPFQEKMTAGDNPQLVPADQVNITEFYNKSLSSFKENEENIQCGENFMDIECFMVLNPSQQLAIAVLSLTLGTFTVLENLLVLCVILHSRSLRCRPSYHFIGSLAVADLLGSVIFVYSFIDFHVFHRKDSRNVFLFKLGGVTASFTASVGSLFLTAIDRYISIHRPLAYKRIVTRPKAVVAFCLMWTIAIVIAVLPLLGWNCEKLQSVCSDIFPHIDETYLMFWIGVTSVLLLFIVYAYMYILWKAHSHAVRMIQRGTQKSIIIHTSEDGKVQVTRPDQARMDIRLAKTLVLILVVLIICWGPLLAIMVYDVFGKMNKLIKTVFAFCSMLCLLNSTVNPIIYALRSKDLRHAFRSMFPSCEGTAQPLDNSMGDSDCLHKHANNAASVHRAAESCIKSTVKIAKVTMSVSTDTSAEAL

CCCCC/C=C\C/C=C\C/C=C\C/C=C\CCCC(=O)NCCCl [ACEA, N-(2-Chloroethyl)-5Z,8Z,11Z,14Z-eicosatetraenamide]
effect on forskolin-stimulated cAMP levels [1]: reduced
cytotoxic / apoptotic effect on hepatic myofibroblasts ([2]; serum-deprived cells): not cytotoxic
effect on DNA synthesis / growth [3]: had no effect
effect on forskolin-stimulated cAMP levels [4]: had no effect

CCCCCCC(C)(C)c1ccc([C@@H]2C[C@H](O)CC[C@H]2CCCO)c(O)c1 [CP 55940, (−)-cis-3-[2-Hydroxy-4-(1,1-dimethylheptyl)phenyl]-trans-4-(3-hydroxypropyl)cyclohexanol]
cytotoxic / apoptotic effect on hepatic myofibroblasts ([2]; serum-deprived cells): cytotoxic

[Cl-].[Mn+3].[O-]c1ccccc1C=NCCN=Cc1ccccc1[O-] [EUK 8]
effect on caspase-3 activation elicited by THC [5]: blunted
effect on the antiproliferative effect of THC [3]: did not affect

CCCCCCC(C)(C)c1cc(O)c2c(c1)OC(C)(C)[C@@H]1CC=C(CO)C[C@@H]21 [HU-210, (6aR)-trans-3-(1,1-Dimethylheptyl)-6a,7,10,10a-tetrahydro-1-hydroxy-6,6-dimethyl-6H-dibenzo[b,d]pyran-9-methanol]
cytotoxic / apoptotic effect on hepatic myofibroblasts ([2]; serum-deprived cells): cytotoxic

CCCn1c(C)c(C(=O)c2cccc3ccccc23)c2ccccc21 [JWH-015, (2-Methyl-1-propyl-1H-indol-3-yl)-1-naphthalenylmethanone]
cytotoxic / apoptotic effect on hepatic myofibroblasts ([2]; serum-deprived cells): apoptotic
IC50 ([2]; serum-deprived cells): 1 µM
cytotoxic / apoptotic effect on hepatic myofibroblasts ([2]; serum-deprived cells, listed as JW-015): reproduced
effect on DNA synthesis / growth [3]: reproduced
IC50 [3]: 0.15 µM
maximal reduction of PDGF-BB-stimulated DNA synthesis [3]: 60%

CC(=O)N[C@@H](CS)C(=O)O [NAC, N-Acetyl Cysteine]
effect on caspase-3 activation elicited by THC [5]: blunted
effect on the antiproliferative effect of THC [3]: did not affect

CS(=O)(=O)Nc1ccc([N+](=O)[O-])cc1OC1CCCCC1 [NS-398, N-(2-cyclohexyloxy-4-nitrophenyl)methane sulfonamide]
effect on caspase-3 activation elicited by THC [5]: did not affect
effect on cytotoxic effect / cell death triggered by THC ([2]; pretreatment before THC): did not affect
effect on the antiproliferative effect of THC [3]: reduced
effect on the antiproliferative effect of THC ([3]; listed as NS 398): blunted

Cc1c(C(=O)NN2CCCCC2)nn(-c2ccc(Cl)cc2Cl)c1-c1ccc(Cl)cc1 [SR 141716, N-pipéridino-5-(4-chlorophényl)-1-(2,4-dichlorophényl)-4-méthylpyrazole-3-carboxamide]
effect on apoptosis elicited by HU-210 [2]: had no effect

[2H]C([2H])([2H])CCCCc1cc(O)c2c(c1)OC(C)(C)C1CCC(C)=CC21 (stereo not drawn) [THC, 6a,7,8,10a-Tetrahydro-6,6,9-trimethyl-3-(pentyl-5,5,5-d3)-6H-dibenzo(b,d)pyran-1-ol]
DNA laddering on agarose gel electrophoresis ([6]; 4 μM THC): dramatic DNA laddering
nuclear morphology (DAPI staining) ([6]; 4 μM THC): condensed nuclei
concentration giving maximal effect on [35S]GTPγS binding [7]: 100 nM
COX activity [8]: stimulates COX activity
time of peak caspase-3 activity [5]: 4 to 6 h
maximal increase of caspase-3 activity ([5]; 4 μM THC, 5 hr (FIG. 6C)): 6.3±2 fold
maximal increase in caspase-3 activity ([5]; time course, peak after 4-6 hr): 6.7 fold
IC50 ([2]; Homo sapiens, serum-deprived cells): 1.5 µM
concentration giving maximal decrease in cell survival ([2]; serum-deprived cells): 2 µM
cytotoxic / apoptotic effect on hepatic myofibroblasts ([2]; serum-deprived cells): cytotoxic effects
concentration giving maximal activation of [35S]GTPγS binding [9]: 10 nM
IC50 ([3]; Homo sapiens): 0.2 µM
maximal reduction of PDGF-BB-stimulated DNA synthesis [3]: 50%
induction of COX-2 [10]: strong induction
cAMP levels in response to compound [11]: not raised
time to ROS production after exposure [12]: ≤ 20 min
increase in production of intracellular reactive oxygen species ([12]; 3 μM THC): 1.5 fold

Cc1c(C(=O)c2cccc3ccccc23)c2cccc3c2n1[C@H](CN1CCOCC1)CO3 [WIN-55.212-2, (R)-(+)-[2,3-Dihydro-5-methyl-3-(4-morpholinylmethyl)pyrrolo[1,2,3-de]-1,4-benzoxazin-6-yl]-1-naphthalenylmethanone mesylate]
cytotoxic / apoptotic effect on hepatic myofibroblasts ([2]; serum-deprived cells): cytotoxic

COC(=O)CC(NC(=O)C(C)NC(=O)C(NC(=O)OCc1ccccc1)C(C)C)C(=O)CF (stereo not drawn) [ZVAD-fmk, Z-val-Ala-Asp (OCH3)-Fluoromethyl ketone] (Cbz-Val-Ala-Asp(OMe)-CH2F; configuration not given here)
effect on THC-induced DNA laddering ([6]; 50 μM ZVAD): blocked
effect on caspase-3 activation elicited by THC [5]: totally blunted

CCCCC/C=C\C/C=C\C/C=C\C/C=C\CCCC(=O)NCCO [anandamide, N-(2-Hydroxyethyl)-5Z,8Z,11Z,14Z-eicosatetraenamide]
cytotoxic / apoptotic effect on hepatic myofibroblasts ([2]; serum-deprived cells): cytotoxic

C=C(C)[C@@H]1CCC(C)=C[C@H]1c1c(O)cc(CCCCC)cc1O [cannabidiol]
cytotoxic / apoptotic effect on hepatic myofibroblasts ([2]; serum-deprived cells): reproduced
effect on DNA synthesis / growth [3]: reproduced

CC(C)Cc1ccc(C(C)C(=O)O)cc1 (stereo not drawn) [ibuprofen]
effect on caspase-3 activation elicited by THC [5]: did not affect
effect on the antiproliferative effect of THC [3]: blunted

N-[1S)-endo-1,3,3,-trimethyl bicyclo[2.2.1]heptan-2-yl]-5-(choloro-3-methylphenyl)-1-(4-methyl-benzyl)-pyrazole-3-carboxamide [SR 144528]
effect on caspase-3 activation elicited by THC [5]: no activation of caspase-3
effect of compound alone on caspase-3-like activity ([5]; without THC): had no effect
effect on apoptosis elicited by HU-210 [2]: prevented
effect of compound alone on cell viability ([2]; without THC): had no effect
effect on the antiproliferative effect of THC [3]: strongly reduced
